Experimental data: the supplement of paper PMC10307832

Key:
Assay in all cases: relative viability (nuclei count vs DMSO), 5 days (fraction); higher = more cells survive
201T = test system: 201T
How it was run: (§1)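 Nuclei were stained with Hoechst during a one-step fixation (final 0.05% Triton X-100, 1% formaldehyde, 1 ug/ml Hoechst) carried out 5 days after dosing, then counted on 4× images. The cells, lung cancer lines in 1536-well plates, had been dosed by pin tool the day after seeding with one drug alone or a fixed anchor-drug dose plus five library-drug doses (not always all listed) in √10 steps. Relative viability is the nuclei count in treated wells divided by that in vehicle wells, and each value is the median of duplicate plates.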

BEN = test system: BEN
How it was run: as §1

COR-L 105 = test system: COR-L 105
How it was run: as §1

EKVX = test system: EKVX
How it was run: as §1

EPLC-272H = test system: EPLC-272H
How it was run: as §1

H3255 = test system: H3255
How it was run: as §1

HCC-44 = test system: HCC-44
How it was run: as §1

HCC-827 = test system: HCC-827
How it was run: as §1

HOP-62 = test system: HOP-62
How it was run: as §1

LCLC-97TM1 = test system: LCLC-97TM1
How it was run: as §1

LOU-NH91 = test system: LOU-NH91
How it was run: as §1

LU99A = test system: LU99A
How it was run: as §1

NCI-H1395 = test system: NCI-H1395
How it was run: as §1

NCI-H1437 = test system: NCI-H1437
How it was run: as §1

NCI-H1666 = test system: NCI-H1666
How it was run: as §1

NCI-H1975 = test system: NCI-H1975
How it was run: as §1

NCI-H2085 = test system: NCI-H2085
How it was run: as §1

NCI-H2087 = test system: NCI-H2087
How it was run: as §1

NCI-H2126 = test system: NCI-H2126
How it was run: as §1

NCI-H2342 = test system: NCI-H2342
How it was run: as §1

NCI-H358 = test system: NCI-H358
How it was run: as §1

NCI-H647 = test system: NCI-H647
How it was run: as §1

PC-3 [JPC-3] = test system: PC-3 [JPC-3]
How it was run: as §1

SW 1573 = test system: SW 1573
How it was run: as §1

## Clc1ccc(Nc2nnc(Cc3ccncc3)c3ccccc23)cc1 [Vatalanib] + Nc1ncn([C@H]2C[C@H](O)[C@@H](CO)O2)c(=O)n1 [Decitabine] (partner 2 µM)
201T; first compound 0.04 µM
  relative viability: 0.832
201T; first compound 0.1265 µM
  relative viability: 0.85
201T; first compound 0.4 µM
  relative viability: 0.881
201T; first compound 1.265 µM
  relative viability: 0.867
201T; first compound 4 µM
  relative viability: 0.861
BEN; first compound 0.04 µM
  relative viability: 0.644
BEN; first compound 0.1265 µM
  relative viability: 0.727
BEN; first compound 0.4 µM
  relative viability: 0.504
BEN; first compound 1.265 µM
  relative viability: 0.739
BEN; first compound 4 µM
  relative viability: 0.774
COR-L 105; first compound 0.04 µM
  relative viability: 0.722
COR-L 105; first compound 0.1265 µM
  relative viability: 0.706
COR-L 105; first compound 0.4 µM
  relative viability: 0.796
COR-L 105; first compound 1.265 µM
  relative viability: 0.681
COR-L 105; first compound 4 µM
  relative viability: 0.714
EKVX; first compound 0.04 µM
  relative viability: 0.41
EKVX; first compound 0.1265 µM
  relative viability: 0.346
EKVX; first compound 0.4 µM
  relative viability: 0.308
EKVX; first compound 1.265 µM
  relative viability: 0.338
EKVX; first compound 4 µM
  relative viability: 0.296
EPLC-272H; first compound 0.04 µM
  relative viability: 0.357
EPLC-272H; first compound 0.1265 µM
  relative viability: 0.342
EPLC-272H; first compound 0.4 µM
  relative viability: 0.35
EPLC-272H; first compound 1.265 µM
  relative viability: 0.356
EPLC-272H; first compound 4 µM
  relative viability: 0.378
H3255; first compound 0.04 µM
  relative viability: 0.526
H3255; first compound 0.1265 µM
  relative viability: 0.616
H3255; first compound 0.4 µM
  relative viability: 0.515
H3255; first compound 1.265 µM
  relative viability: 0.613
H3255; first compound 4 µM
  relative viability: 0.551
HCC-44; first compound 0.04 µM
  relative viability: 0.961
HCC-44; first compound 0.1265 µM
  relative viability: 0.944
HCC-44; first compound 0.4 µM
  relative viability: 0.976
HCC-44; first compound 1.265 µM
  relative viability: 0.906
HCC-44; first compound 4 µM
  relative viability: 0.961
HCC-827; first compound 0.04 µM
  relative viability: 0.28
HCC-827; first compound 0.1265 µM
  relative viability: 0.308
HCC-827; first compound 1.265 µM
  relative viability: 0.266
HCC-827; first compound 4 µM
  relative viability: 0.343
HOP-62; first compound 0.04 µM
  relative viability: 0.183
HOP-62; first compound 0.1265 µM
  relative viability: 0.216
HOP-62; first compound 0.4 µM
  relative viability: 0.223
HOP-62; first compound 1.265 µM
  relative viability: 0.239
HOP-62; first compound 4 µM
  relative viability: 0.205
LCLC-97TM1; first compound 0.04 µM
  relative viability: 0.237
LCLC-97TM1; first compound 0.1265 µM
  relative viability: 0.19
LCLC-97TM1; first compound 0.4 µM
  relative viability: 0.25
LCLC-97TM1; first compound 1.265 µM
  relative viability: 0.224
LCLC-97TM1; first compound 4 µM
  relative viability: 0.232
LOU-NH91; first compound 0.04 µM
  relative viability: 0.766
LOU-NH91; first compound 0.1265 µM
  relative viability: 0.81
LOU-NH91; first compound 0.4 µM
  relative viability: 0.766
LOU-NH91; first compound 1.265 µM
  relative viability: 0.824
LOU-NH91; first compound 4 µM
  relative viability: 0.823
LU99A; first compound 0.04 µM
  relative viability: 0.835
LU99A; first compound 0.1265 µM
  relative viability: 0.842
LU99A; first compound 0.4 µM
  relative viability: 0.962
LU99A; first compound 1.265 µM
  relative viability: 0.868
LU99A; first compound 4 µM
  relative viability: 0.84
NCI-H1395; first compound 0.04 µM
  relative viability: 0.718
NCI-H1395; first compound 0.1265 µM
  relative viability: 0.702
NCI-H1395; first compound 0.4 µM
  relative viability: 0.722
NCI-H1395; first compound 4 µM
  relative viability: 0.665
NCI-H1437; first compound 0.04 µM
  relative viability: 0.53
NCI-H1437; first compound 0.1265 µM
  relative viability: 0.523
NCI-H1437; first compound 0.4 µM
  relative viability: 0.573
NCI-H1437; first compound 1.265 µM
  relative viability: 0.587
NCI-H1437; first compound 4 µM
  relative viability: 0.608
NCI-H1666; first compound 0.04 µM
  relative viability: 0.649
NCI-H1666; first compound 0.1265 µM
  relative viability: 0.755
NCI-H1666; first compound 0.4 µM
  relative viability: 0.593
NCI-H1666; first compound 1.265 µM
  relative viability: 0.672
NCI-H1666; first compound 4 µM
  relative viability: 0.785
NCI-H1975; first compound 0.04 µM
  relative viability: 0.423
NCI-H1975; first compound 0.1265 µM
  relative viability: 0.378
NCI-H1975; first compound 0.4 µM
  relative viability: 0.401
NCI-H1975; first compound 1.265 µM
  relative viability: 0.391
NCI-H1975; first compound 4 µM
  relative viability: 0.397
NCI-H2085; first compound 0.04 µM
  relative viability: 0.556
NCI-H2085; first compound 0.1265 µM
  relative viability: 0.552
NCI-H2085; first compound 0.4 µM
  relative viability: 0.476
NCI-H2085; first compound 1.265 µM
  relative viability: 0.52
NCI-H2085; first compound 4 µM
  relative viability: 0.527
NCI-H2087; first compound 0.04 µM
  relative viability: 0.286
NCI-H2087; first compound 0.1265 µM
  relative viability: 0.292
NCI-H2087; first compound 0.4 µM
  relative viability: 0.273
NCI-H2087; first compound 1.265 µM
  relative viability: 0.298
NCI-H2087; first compound 4 µM
  relative viability: 0.275
NCI-H2126; first compound 0.04 µM
  relative viability: 0.514
NCI-H2126; first compound 0.1265 µM
  relative viability: 0.534
NCI-H2126; first compound 0.4 µM
  relative viability: 0.594
NCI-H2126; first compound 1.265 µM
  relative viability: 0.565
NCI-H2126; first compound 4 µM
  relative viability: 0.634
NCI-H2342; first compound 0.04 µM
  relative viability: 0.611
NCI-H2342; first compound 0.1265 µM
  relative viability: 0.781
NCI-H2342; first compound 0.4 µM
  relative viability: 0.718
NCI-H2342; first compound 1.265 µM
  relative viability: 0.736
NCI-H2342; first compound 4 µM
  relative viability: 0.641
NCI-H358; first compound 0.04 µM
  relative viability: 0.23
NCI-H358; first compound 0.1265 µM
  relative viability: 0.204
NCI-H358; first compound 0.4 µM
  relative viability: 0.246
NCI-H358; first compound 1.265 µM
  relative viability: 0.21
NCI-H358; first compound 4 µM
  relative viability: 0.234
NCI-H647; first compound 0.04 µM
  relative viability: 0.4
NCI-H647; first compound 0.1265 µM
  relative viability: 0.375
NCI-H647; first compound 0.4 µM
  relative viability: 0.562
NCI-H647; first compound 1.265 µM
  relative viability: 0.36
NCI-H647; first compound 4 µM
  relative viability: 0.375
PC-3 [JPC-3]; first compound 0.04 µM
  relative viability: 0.843
PC-3 [JPC-3]; first compound 0.1265 µM
  relative viability: 0.81
PC-3 [JPC-3]; first compound 0.4 µM
  relative viability: 0.663
PC-3 [JPC-3]; first compound 1.265 µM
  relative viability: 0.857
PC-3 [JPC-3]; first compound 4 µM
  relative viability: 0.777
SW 1573; first compound 0.04 µM
  relative viability: 0.541
SW 1573; first compound 0.1265 µM
  relative viability: 0.482
SW 1573; first compound 0.4 µM
  relative viability: 0.39
SW 1573; first compound 1.265 µM
  relative viability: 0.455
SW 1573; first compound 4 µM
  relative viability: 0.493
